Measured values published in patent US8871948B2, “(Aza)indole derivative substituted in position 5, pharmaceutical composition comprising it, intermediate compounds and preparation process therefor” (Aziende Chimiche Riunite Angelini Francesco A.C.R.A.F.S.p.A., priority 2007, dated 2014).

Assays:
[1] = test system: production of PGF2α in human pulmonary adenocarcinoma cell line A549; experiment: Inhibition of PGF2α production in IL-1β-stimulated A549 cells (EIA); format: cell-based; settings: for IC50: IL-1β stimulated, read-out: pIC50 PGF2α (converted)
Description: (§1) The test used makes it possible to evaluate the inhibitory capacity of the test compounds on the production of PGE2 and the selectivity relative to the production of PGF2α. The human pulmonary adenocarcinoma cell line A549 was used, which is particularly sensitive to stimulation with proinflammatory cytokines, for instance IL-1β, and, in response to this stimulation, is particularly active in the production and release of two prostanoids: PGE2 and PGF2α (Thoren S. Jakobsson P-J, 2000).
(§2) The cells were stimulated with IL-1β (10 ng/ml) and simultaneously treated with the test compound for 22 hours in a suitable culture medium (DMEM Dulbecco's Modified Eagles Medium) enriched with 5% fetal calf serum and L-glutamine (4 mM final) in an incubator at 37° C. and with a CO2 concentration of 5%.
(§3) At the end of the incubation, the amount of PGE2 and PGF2α produced and released into the supernatant were assayed using an EIA kit (produced and sold by Cayman Chemicals, Ann Arbor, Mich., USA).
(§4) The comparative compound used was indomethacin at a concentration of 10 nM (Sigma-Aldrich), which is a non-steroidal anti-inflammatory drug that inhibits in equal measure both PGE2 and PGF2α.
(§5) For illustrative purposes, Table 3 collates the pIC50 values of a number of compounds of the invention, where pIC50 represents the negative logarithm of the IC50, which, in turn, represents the concentration of compound that inhibits the production of PGE2 or PGF2α by 50% relative to cells that are stimulated but not treated with the same compound.

[2] = test system: production of PGE2 in human pulmonary adenocarcinoma cell line A549 (mPGES-1); experiment: Inhibition of PGE2 production in IL-1β-stimulated A549 cells (EIA); format: cell-based; settings: for IC50: IL-1β stimulated, read-out: pIC50 PGE2 (converted)
Description: as §1, §2, §3, §4, §5

[3] = test system: production of PGE2 in human lymphoma cell line U-937 (cPGES); experiment: Inhibition of PGE2 production in U-937 cells (selectivity between isoforms of PGES); format: cell-based; settings: basal conditions
Description: The test used makes it possible to evaluate the capacity of the compounds of the invention to inhibit the production of PGE2 in a human lymphoma cell line U-937 that preferentially expresses an enzymatic isoform (cPGES), which is responsible for the production of PGE2 under basal conditions, in the absence of pro-inflammatory stimuli. This enzymatic form is different from the one predominantly expressed in the A549 cells (mPGES-1) after a pro-inflammatory stimulus.
The absence of inhibitory activity on PGE2 in this cell model ensures the selectivity of the compound compared with the enzymatic form responsible for the production of PGE2 in the presence of inflammatory stimuli.
The reference compound used was indomethacin at a concentration of 10 nM.

[4] = test system: acetic acid-induced stretching in mice; experiment: Acetic acid-induced stretching in mice; format: in vivo; settings: female CD-1 mice; for N° of stretches: 20 minutes after acetic acid; for % inhibition (stretches): vs vehicle (MTC)
Description: The test compound was evaluated in the model of acetic acid-induced stretching in mice (Stock J. L. et al., J Clin Inv 2001, 107: 325-331). This test makes it possible to evaluate the antinociceptive activity of the compounds of the invention in a model of inflammatory pain.
Female CD-1 mice weighing 25-30 g were used for the test. […] The control animals were treated with the vehicle alone (MTC) via the same route.
30 minutes after the treatment, the animals received an intraperitoneal injection of acetic acid (0.7 v/v in physiological solution, 16 μl/g of body weight) in order to induce inflammatory pain and to check the effects of the test compound on the nociceptive response.
Immediately after the administration of acetic acid and for the following 20 minutes, the number of stretches, which represents the parameter for evaluation of the nociceptive response, was measured.

[5] = 10 nM, IL-1β 10 ng/ml, 22 hours

IC50 [2] [µM]	Compound	inhibition at 10 µM ([1]; IL-1β 10 ng/ml, 22 hours) [%]	inhibition at 10 µM ([2]; IL-1β 10 ng/ml, 22 hours) [%]	also measured
–	CCn1c(-c2ccc(C)cc2)cc2cc(NC(=O)c3ccccc3Cl)cnc21 [Compound 1]	< 20	59	–
3.98	CCOC(=O)CCCn1c(-c2ccccc2)cc2cc(NC(=O)c3ccccc3Cl)ccc21 [Compound 7]	< 20	76	–
1.58	CCn1c(C2CCCCC2)cc2cc(NC(=O)c3ccccc3Cl)ccc21 [Compound 10]	< 20	78	inhibition at 10 µM [3]: < 20%; N° of stretches ([4]; 0.01 mg/kg intraperitoneally): 47 ± 4.3; % inhibition (stretches) ([4]; 0.01 mg/kg intraperitoneally): 5.9 ± 8.76%; N° of stretches ([4]; 0.1 mg/kg intraperitoneally): 34 ± 3.2; % inhibition (stretches) ([4]; 0.1 mg/kg intraperitoneally): 33.2 ± 6.16%; N° of stretches ([4]; 1 mg/kg intraperitoneally): 33 ± 3.9; % inhibition (stretches) ([4]; 1 mg/kg intraperitoneally): 33.6 ± 8.04%; N° of stretches ([4]; 10 mg/kg intraperitoneally): 21 ± 3.2; % inhibition (stretches) ([4]; 10 mg/kg intraperitoneally): 57.5 ± 6.57%
3.16	COCCn1c(-c2ccccc2)cc2cc(NC(=O)c3ccccc3Cl)ccc21 [Compound 12]	< 20	78	inhibition at 10 µM [3]: < 20%
7.94	CC(=O)OCCCn1c(-c2ccccc2)cc2cc(NC(=O)c3ccccc3Cl)ccc21 [Compound 13]	< 20	61	inhibition at 10 µM [3]: < 20%
0.501	CS(=O)(=O)n1c(CCc2ccccc2)cc2cc(NC(=O)c3ccccc3Cl)ccc21 [Compound 21]	< 20	69	–
1.58	CS(=O)(=O)n1c(-c2cccc(C(F)(F)F)c2)cc2cc(NC(=O)c3ccccc3Cl)ccc21 [Compound 22]	44	94	inhibition at 10 µM [3]: < 20%; IC50 [1]: 25.1 µM
–	CCn1c(CCc2ccccc2)cc2cc(NC(=O)c3ccccc3Cl)ccc21 [Compound 33]	< 20	41	–
2.51	CCn1c(Cc2ccccc2)cc2cc(NC(=O)c3ccccc3Cl)ccc21 [Compound 34]	44	83	–
2.51	O=C(Nc1ccc2c(c1)cc(C(=O)Nc1ccccc1)n2CCCO)c1ccccc1C(F)(F)F [Compound 35]	13	88	IC50 [1]: 31.6 µM
50.1	O=C(Nc1ccc2c(c1)cc(-c1ccc(F)cc1)n2CCO)c1c(Cl)cccc1Cl [Compound 36]	< 20	40	–
6.31	O=C(Nc1ccc2c(c1)cc(-c1ccc(Cl)cc1)n2CCO)c1ccc(F)cc1C(F)(F)F [Compound 37]	< 20	73	–
25.1	O=C(Nc1ccc2c(c1)cc(-c1ccc(F)cc1)n2CCO)c1c(F)cccc1C(F)(F)F [Compound 38]	< 20	42	–
0.00501	COc1ccc2c(c1)c(CC(=O)O)c(C)n2C(=O)c1ccc(Cl)cc1 [Indomethacin, indomethacin, reference compound]	–	–	inhibition at 0.01 µM ([3]; 10 nM): 100%; inhibition at 0.01 µM [1, 5]: 100%; IC50 [1]: 0.00251 µM; inhibition at 0.01 µM [2, 5]: 100%
